Assay results: patent US20050124562A1, “Bis-quinazoline compounds for the treatment of bacterial infections” (priority 2003, published 2005)

Legend:
Type in all cases: cell-based
[1] = system: efflux mutants of E. coli; test: Broth microdilution MIC (NCCLS), E. coli efflux mutants; settings: Escherichia coli, read-out: MICs
Description: (§1) Representative bis-quinazolines were tested for antibacterial activity using the […] microdilution method to determine their minimum inhibitory concentrations (MICs). All compounds were tested using standard methods in accordance with NCCLS guidelines (National Committee for Clinical Laboratory Standards. 2003. Methods for dilution antimicrobial susceptibility testing for bacteria that grow aerobically. Approved Standard M-7 A-6, NCCLS, Wayne, Pa.). The bacterial strains used in the susceptibility tests were obtained from the American Type Culture Collection (ATCC) and included resistant phenotypes such as oxacillin-resistant S. aureus (ORSA) and vancomycin-resistant enterococci (VRE). The minimum bactericidal concentrations (MBCs) were determined for selected organisms. The effect of protein binding on the antibacterial activity of representative bis-quinazolines were determined by conducting MIC tests in the presence of human serum.

[2] = system: S. aureus, E. faecalis, S. pyogenes and S. pneumoniae; test: Broth microdilution MIC (NCCLS), gram-positive strains; settings: range against some strains of S. aureus, E. faecalis, S. pyogenes and S. pneumoniae; read-out: MIC
Procedure, shortened: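 MICs by broth microdilution per NCCLS M-7 A-6 against ATCC strains, including ORSA and VRE; MBCs determined for selected organisms. Serum effect assessed by repeating MIC tests with human serum present.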

H. influenzae = test: Broth microdilution MIC (NCCLS), H. influenzae; settings: Haemophilus influenzae; some strains of H. influenzae
Description: as §1

[3] = system: efflux mutants of P. aeruginosa; test: Broth microdilution MIC (NCCLS), P. aeruginosa efflux mutants; settings: Pseudomonas aeruginosa, read-out: MICs
Description: as §1

M. catarrhalis = test: Broth microdilution MIC (NCCLS), M. catarrhalis; settings: Moraxella catarrhalis; some strains of M. catarrhalis; read-out: MIC range
Description: as §1

SMILES | MIC [1] | MIC [2] | MIC (H. influenzae) | MIC [3] | MIC (M. catarrhalis)
COc1cc2c(C)nc(Nc3nc(O)c4cccc(OC)c4n3)nc2cc1[N+](=O)[O-].O=C(O)C(F)(F)F [Example 77, 2-(6-methoxy-7-nitro-4-methyl-quinazolin-2-ylamino)-8-methoxy-quinazolin-4-ol trifluoroacetate salt] | 16 to 64 µg/mL | 0.06 to 16 µg/mL | 16 to 32 µg/mL | 64 µg/mL | 2 to 64 µg/mL
COc1cc2nc(Nc3nc(O)c4c(OC)cccc4n3)nc(C)c2cc1OC.O=C(O)C(F)(F)F [Example 84, 2-(6,7-Dimethoxy-4-methyl-quinazolin-2-ylamino)-5-methoxy-quinazolin-4-ol trifluoroacetate salt] | 16 to 64 µg/mL | 0.06 to 16 µg/mL | 16 to 32 µg/mL | 64 µg/mL | 2 to 64 µg/mL
COc1cc(OC)c2nc(Nc3nc(O)c4c(OC)cccc4n3)nc(C)c2c1.O=C(O)C(F)(F)F [Example 85, 2-(6,8-Dimethoxy-4-methyl-quinazolin-2-ylamino)-5-methoxy-quinazolin-4-ol trifluoroacetate salt] | 16 to 64 µg/mL | 0.06 to 16 µg/mL | 16 to 32 µg/mL | 64 µg/mL | 2 to 64 µg/mL
COc1cc2c(C)nc(Nc3nc(O)c4cccc(OC)c4n3)nc2cc1F.O=C(O)C(F)(F)F [Example 86, 2-(7-Fluoro-6-methoxy-4-methyl-quinazolin-2-ylamino)-8-methoxy-quinazolin-4-ol trifluoroacetate salt] | 16 to 64 µg/mL | 0.06 to 16 µg/mL | 16 to 32 µg/mL | 64 µg/mL | 2 to 64 µg/mL
COc1cc2nc(Nc3nc(O)c4cccc(OC)c4n3)nc(CF)c2cc1OC.O=C(O)C(F)(F)F [Example 87, 2-(4-Fluoromethyl-6,7-dimethoxy-quinazolin-2-ylamino)-8-methoxy-quinazolin-4-ol trifluoroacetate salt] | 16 to 64 µg/mL | 0.06 to 16 µg/mL | 16 to 32 µg/mL | 64 µg/mL | 2 to 64 µg/mL
COCCOc1ccc2nc(Nc3nc(O)c4c(OC)cccc4n3)nc(C)c2c1.O=C(O)C(F)(F)F [Example 88, 5-Methoxy-2-[6-(2-methoxy-ethoxy)-4-methyl-quinazolin-2-ylamino]-quinazolin-4-ol trifluoroacetate salt] | 16 to 64 µg/mL | 0.06 to 16 µg/mL | 16 to 32 µg/mL | 64 µg/mL | 2 to 64 µg/mL
COCCOc1cc2nc(Nc3nc(O)c4cccc(OC)c4n3)nc(C)c2cc1OCCOC.O=C(O)C(F)(F)F [Example 89, 2-[6,7-Bis-(2-methoxy-ethoxy)-4-methyl-quinazolin-2-ylamino]-8-methoxy-quinazolin-4-ol trifluoroacetate salt] | 16 to 64 µg/mL | 0.06 to 16 µg/mL | 16 to 32 µg/mL | 64 µg/mL | 2 to 64 µg/mL
COc1cc2nc(Nc3nc(O)c4c(OC)cccc4n3)nc(CF)c2cc1OC.O=C(O)C(F)(F)F [Example 90, 2-(4-Fluoromethyl-6,7-dimethoxy-quinazolin-2-ylamino)-5-methoxy-quinazolin-4-ol trifluoroacetate salt] | 16 to 64 µg/mL | 0.06 to 16 µg/mL | 16 to 32 µg/mL | 64 µg/mL | 2 to 64 µg/mL
COc1cccc2c(O)nc(Nc3nc(C)c4c(OC)ccc(C)c4n3)nc12.O=C(O)C(F)(F)F [Example 91, 8-Methoxy-2-(5-methoxy-4,8-dimethyl-quinazolin-2-ylamino)-quinazolin-4-ol trifluoroacetate salt] | 16 to 64 µg/mL | 0.06 to 16 µg/mL | 16 to 32 µg/mL | 64 µg/mL | 2 to 64 µg/mL
COc1cc2c(C)nc(Nc3nc(O)c4c(OC)cccc4n3)nc2cc1F.O=C(O)C(F)(F)F [Example 94, 2-(7-Fluoro-6-methoxy-4-methyl-quinazolin-2-ylamino)-5-methoxy-quinazolin-4-ol trifluoroacetate salt] | 16 to 64 µg/mL | 0.06 to 16 µg/mL | 16 to 32 µg/mL | 64 µg/mL | 2 to 64 µg/mL
COc1ccc(OC)c2c(O)nc(Nc3nc(C)c4ccc5c(c4n3)OCCO5)nc12.O=C(O)C(F)(F)F [Example 95, 5,8-Dimethoxy-2-(8-methyl-2,3-dihydro-1,4-dioxa-5,7-diaza-phenanthren-6-ylamino)-quinazolin-4-ol trifluoroacetate salt] | 16 to 64 µg/mL | 0.06 to 16 µg/mL | 16 to 32 µg/mL | 64 µg/mL | 2 to 64 µg/mL
COc1cc2nc(Nc3nc(O)c4cccc(F)c4n3)nc(C)c2cc1OC.O=C(O)C(F)(F)F [Example 96, 2-(6,7-Dimethoxy-4-methyl-quinazolin-2-ylamino)-8-fluoro-quinazolin-4-ol trifluoroacetate salt] | 16 to 64 µg/mL | 0.06 to 16 µg/mL | 16 to 32 µg/mL | 64 µg/mL | 2 to 64 µg/mL
CCOc1cccc2c(O)nc(Nc3nc(C)c4cc(OC)c(OC)cc4n3)nc12.O=C(O)C(F)(F)F [Example 97, 2-(6,7-Dimethoxy-4-methyl-quinazolin-2-ylamino)-8-ethoxy-quinazolin-4-ol trifluoroacetate salt] | 16 to 64 µg/mL | 0.06 to 16 µg/mL | 16 to 32 µg/mL | 64 µg/mL | 2 to 64 µg/mL
COc1cc(OC)c2nc(Nc3nc(O)c4cccc(F)c4n3)nc(C)c2c1.O=C(O)C(F)(F)F [Example 98, 2-(6,8-Dimethoxy-4-methyl-quinazolin-2-ylamino)-8-fluoro-quinazolin-4-ol trifluoroacetate salt] | 16 to 64 µg/mL | 0.06 to 16 µg/mL | 16 to 32 µg/mL | 64 µg/mL | 2 to 64 µg/mL
COc1cc2nc(Nc3nc(O)c4c(OC)ccc(OC)c4n3)nc(C)c2cc1OC.O=C(O)C(F)(F)F [Example 99, 2-(6,7-Dimethoxy-4-methyl-quinazolin-2-ylamino)-5,8-dimethoxy-quinazolin-4-ol trifluoroacetate salt] | 16 to 64 µg/mL | 0.06 to 16 µg/mL | 16 to 32 µg/mL | 64 µg/mL | 2 to 64 µg/mL
COCCOc1ccc2nc(Nc3nc(C)c4cc(OC)c(OC)cc4n3)nc(O)c2c1.O=C(O)C(F)(F)F [Example 102, 2-(6,7-Dimethoxy-4-methyl-quinazolin-2-ylamino)-6-(2-methoxy-ethoxy)-quinazolin-4-ol trifluoroacetate salt] | 16 to 64 µg/mL | 0.06 to 16 µg/mL | 16 to 32 µg/mL | 64 µg/mL | 2 to 64 µg/mL
COc1cc2c(C)nc(Nc3nc(O)c4cccc(F)c4n3)nc2cc1O.O=C(O)C(F)(F)F [Example 104, 2-(8-Fluoro-4-hydroxy-quinazolin-2-ylamino)-6-methoxy-4-methyl-quinazolin-7-ol trifluoroacetate salt] | 16 to 64 µg/mL | 0.06 to 16 µg/mL | 16 to 32 µg/mL | 64 µg/mL | 2 to 64 µg/mL
Cc1nc(Nc2nc(O)c3cccc(F)c3n2)nc2cc3c(cc12)OCCO3.O=C(O)C(F)(F)F [Example 108, 8-Fluoro-2-(4-methyl-7,8-dihydro-[1,4]dioxino[2,3-g]quinazolin-2-ylamino)-quinazolin-4-ol trifluoroacetate salt] | 16 to 64 µg/mL | 0.06 to 16 µg/mL | 16 to 32 µg/mL | 64 µg/mL | 2 to 64 µg/mL
CCN(CC)CCOc1ccc2nc(Nc3nc(O)c4cccc(OC)c4n3)nc(C)c2c1.O=C(O)C(F)(F)F [Example 115, 2-[6-(2-Diethylamino-ethoxy)-4-methyl-quinazolin-2-ylamino]-8-methoxy-quinazolin-4-ol trifluoroacetate salt] | 16 to 64 µg/mL | 0.06 to 16 µg/mL | 16 to 32 µg/mL | 64 µg/mL | 2 to 64 µg/mL
COc1cc2nc(Nc3nc(O)c4cc(N)cc(C)c4n3)nc(C)c2cc1OC.O=C(O)C(F)(F)F [Example 120, 6-Amino-2-(6,7-dimethoxy-4-methyl-quinazolin-2-ylamino)-8-methyl-quinazolin-4-ol trifluoroacetate salt] | 16 to 64 µg/mL | 0.06 to 16 µg/mL | 16 to 32 µg/mL | 64 µg/mL | 2 to 64 µg/mL
COc1cc2nc(Nc3nc(O)c4cc(N(C)C)cc(C)c4n3)nc(C)c2cc1OC.O=C(O)C(F)(F)F [Example 121, 2-(6,7-Dimethoxy-4-methyl-quinazolin-2-ylamino)-6-dimethylamino-8-methyl-quinazolin-4-ol trifluoroacetate salt] | 16 to 64 µg/mL | 0.06 to 16 µg/mL | 16 to 32 µg/mL | 64 µg/mL | 2 to 64 µg/mL
CCN(CC)CCOc1ccc2nc(Nc3nc(O)c4cc(N)cc(C)c4n3)nc(C)c2c1.O=C(O)C(F)(F)F [Example 125, 6-Amino-2-[6-(2-diethylamino-ethoxy)-4-methyl-quinazolin-2-ylamino]-8-methyl-quinazolin-4-ol trifluoroacetate salt] | 16 to 64 µg/mL | 0.06 to 16 µg/mL | 16 to 32 µg/mL | 64 µg/mL | 2 to 64 µg/mL
COc1cccc2c(C)nc(Nc3nc(O)c4cc(OCCN5CCC(O)C5)ccc4n3)nc12.O=C(O)C(F)(F)F (stereo not shown) [Example 138, 6-[2-(3-Hydroxy-pyrrolidin-1-yl)-ethoxy]-2-(8-methoxy-4-methyl-quinazolin-2-ylamino)-quinazolin-4-ol trifluoroacetate salt] | 16 to 64 µg/mL | 0.06 to 16 µg/mL | 16 to 32 µg/mL | 64 µg/mL | 2 to 64 µg/mL
